Results from article PMC8980233, “Differentiating the Neuropharmacological Properties of Nicotinic Acetylcholine Receptor-Activating Alkaloids” (Frontiers in Pharmacology, 2022).
Where two headings read alike, the source gives them in different places.

Columns and labels:
[1] = test system: dopamine release from striatal synaptosomes; assay: In vitro [3H]dopamine release from crude striatal synaptosomes; type: biochemical, rat; details: for EC50: striatal synaptosomes
Protocol: In brief, male Sprague Dawley rats (200–225 g) were terminated by cervical dislocation followed by decapitation. The striatums or hippocampi were dissected and homogenized in ice-cold 0.32 M sucrose using a Dounce homogenizer. The homogenates were centrifuged at 100 x g for 5 min to pellet cell debris. The supernatants were collected and centrifuged at 17,000 x g for 10 min at 4°C to pellet crude synaptosomes.
The [^3H]norepinephrine- or [^3H]dopamine-treated crude synaptosomes were loaded onto closed filter chambers containing Whatman® Grade GF/C Glass Microfiber filters (Sigma-Aldrich, Merck KGaA, Darmstadt, Germany) and placed in a superfusion system. […] To ensure an even flow over the synaptosomal bed, trapped air bubbles were removed from the filters prior to collection of the fractions. After a superfusion period of 40 min, three basal fractions (1.5 ml/fraction) were collected first, followed by three fractions (1.5 ml/fraction) containing the test compound. Two additional fractions were collected in the presence of 30 mM KCl to depolarize the synaptosomes. […] Once all fractions were collected, the filters holding the crude synaptosome samples were removed and dried overnight at room temperature. On the following day, the scintillation cocktail was added and the filters were counted to determine residual radioactivity.
Compound-evoked release of neurotransmitters was calculated by subtracting the counts per minute (CPM) in the two basal fractions collected immediately prior to compound addition from those in the two fractions collected immediately following compound addition. The compound-evoked release was then expressed as a percentage of the basal release from that chamber. Potassium-evoked release was calculated by subtracting the CPM in the fraction immediately prior to KCl addition from the CPM in the […] immediately following potassium addition. Stimulated release was calculated as the percentage of basal release for that chamber. The increase in stimulated release above the baseline (no compound) release for that experimental run was determined, and the latter values were plotted on the graphs. Dose–response curves were determined using non-linear curve fitting in Prism (GraphPad Software, Inc, San Diego, CA, United States). All experiments were repeated at least three times.

α4β2 nAChR = α4β2 nAChR (Homo sapiens, UniProt P17787+P43681); assay: nAChR functional assay, automated patch-clamp; type: cell-based
Protocol: (§1) Electrophysiological responses were recorded using an automated patch-clamp Patchliner Octo® system (Nanion Technologies, Munich, Germany) equipped with two EPC-10 Quadro patch-clamp amplifiers (HEKA Elektronik, Lambrecht, Germany) as described by ([Alijevic et al., 2020]). In brief, Chinese hamster ovary (CHO) or human embryonic kidney-293 (HEK-293) cells stably expressing human nAChRs (Charles River Laboratories, Wilmington, MA, United States) were maintained in DMEM/F12 medium (Gibco, Thermo Fisher Scientific, Waltham, MA, United States) supplemented with 10% heat-inactivated fetal bovine serum (FBS; Gibco) and penicillin–streptomycin (100 U/mL and 0.1 mg/ml, respectively; Sigma-Aldrich, St. Louis, MO, United States) at 37°C in 5% CO2 and 70% humidity. The following selection antibiotics were used for the cell lines: G418 (0.25 mg/ml; Sigma-Aldrich) and Zeocin^TM (0.4 mg/ml; InvivoGen, San Diego, CA, United States) for α7/Ric3 nAChR and α3β4 nAChR cells; puromycin (8 μg/ml; InvivoGen) and hygromycin B (0.4 mg/ml; Gibco) for α4β2 nAChR cells; and G418 (0.5 mg/ml), puromycin (0.25 μg/ml), and hygromycin B (0.02 mg/ml) for α6/3β2/β3 nAChR cells. The cells were used for characterizing nAChR pharmacology, because no endogenous ionotropic nicotinic receptors are found ([Roncarati et al., 2008]; [Papke and Smith-Maxwell, 2009]; [Kirsch et al., 2016]; [Scheffel et al., 2018]). The subunit distributions in the cells have been previously described ([Alijevic et al., 2020]). The human nAChRs were selected due to the lack of commercially available nAChR expression systems for mouse or zebrafish. The translatability of findings between zebrafish and human nAChR activities have been previously reported ([Papke and Smith-Maxwell, 2009]; [Papke et al., 2012]; [Alijevic et al., 2020]).
(§2) On the day of the experiment, nAChR-expressing cells were suspended in extracellular solution (in mM: 140 NaCl, 4KCl, one MgCl2, two CaCl2, five glucose, and 10 HEPES, adjusted to pH 7.4 with NaOH (298 mOsmol)), then placed in the Patchliner Octo® system. The internal solution contained in mM: 50 KCl, 60 kF, 10 NaCl, 20 EGTA, and 10 HEPES, adjusted to pH 7.2 with KOH (285 mOsmol). […] Data were analyzed using the Patchmaster software and corrected for leak current. The data acceptance criteria were as follows: seal resistance >100 MΩ; seal resistance loss variation <50%; access resistance <20 MΩ; and minimum current amplitude elicited by maximal effect concentration acetylcholine >50 pA. Offline data analysis was performed in OpenOffice™ (v4.1.2; The Apache Software Foundation, Wakefield, MA, United States). Data are presented as mean ± S.D. All experiments were performed at room temperature (24°C) and repeated at least three times. Igor Pro (v6.2.2.2; WaveMetrics, Lake Oswego, OR, United States) or Prism (v8.2.1) were used for assessing the concentration–response curves.

α6/3β2β3 nAChR = α6/3β2β3 nAChR (Homo sapiens, UniProt P17787+P32297+Q15825); assay: nAChR functional assay, automated patch-clamp; type: cell-based
Protocol: as §1, §2

C57Bl/6 mice = assay: SmartCube behavioral profiling; type: in vivo; details: single i.p. injection
Text: The SmartCube^ ® system is a unique mouse behavior profiling system developed by PsychoGenics Inc. It extracts over 2000 spontaneous and challenge-induced behavioral features during a session ([Alexandrov et al., 2015]; [Alexandrov et al., 2016]). The recorded behavioral parameters are then compared against the behavioral profiles of marketed reference compounds in the database, and the test compounds are classified into known drug classes using PsychoGenics’ proprietary bioinformatics algorithms. In brief, mice were i. p. injected with vehicle or test compound at 10 ml/kg body weight and placed in the SmartCube^ ® arena (24 cm × 25 cm) 15 min later. Spontaneous and stimulus-induced behaviors of mice were recorded using force sensors distributed throughout the arena during a 45-min test session. In addition, three high-resolution video cameras provided a constant 3-dimensional (3D) view of the mouse behavior in the SmartCube^ ® arena throughout the testing period. The bedding was vacuumed, and the arena was cleaned with NOLVASAN^ ® solution between each run. Data from the SmartCube^ ® test were processed using PsychoGenics’ proprietary Computer Vision feature extraction, Bayesian probabilistic density models, and data mining algorithms, trained on a large library of reference compounds with known therapeutic indications to predict the underlying class of each test compound ([Alexandrov et al., 2015]; [Alexandrov et al., 2016]). Twelve mice were tested per condition. Mice were terminated after the completion of the SmartCube^ ® test.
The doses were calculated based on the free base molecular weight. The doses were selected based on the tolerability test results.

α6/3β2β3 nAChR, sequence (Q15825+P32297 fused with the stated changes): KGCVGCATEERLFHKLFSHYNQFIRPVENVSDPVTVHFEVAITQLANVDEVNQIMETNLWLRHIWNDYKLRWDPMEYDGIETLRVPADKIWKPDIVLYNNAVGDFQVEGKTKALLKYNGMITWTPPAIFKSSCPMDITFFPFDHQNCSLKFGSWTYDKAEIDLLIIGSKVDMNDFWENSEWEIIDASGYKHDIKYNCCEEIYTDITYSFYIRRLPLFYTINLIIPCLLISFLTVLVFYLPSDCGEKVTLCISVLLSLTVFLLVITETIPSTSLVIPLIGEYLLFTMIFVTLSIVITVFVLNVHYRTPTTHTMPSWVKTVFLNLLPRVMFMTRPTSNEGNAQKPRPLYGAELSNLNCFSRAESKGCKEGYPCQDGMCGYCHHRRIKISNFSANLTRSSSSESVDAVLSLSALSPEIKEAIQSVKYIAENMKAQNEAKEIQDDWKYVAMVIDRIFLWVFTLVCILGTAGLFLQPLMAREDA
α6/3β2β3 nAChR, sequence (P17787 26-502): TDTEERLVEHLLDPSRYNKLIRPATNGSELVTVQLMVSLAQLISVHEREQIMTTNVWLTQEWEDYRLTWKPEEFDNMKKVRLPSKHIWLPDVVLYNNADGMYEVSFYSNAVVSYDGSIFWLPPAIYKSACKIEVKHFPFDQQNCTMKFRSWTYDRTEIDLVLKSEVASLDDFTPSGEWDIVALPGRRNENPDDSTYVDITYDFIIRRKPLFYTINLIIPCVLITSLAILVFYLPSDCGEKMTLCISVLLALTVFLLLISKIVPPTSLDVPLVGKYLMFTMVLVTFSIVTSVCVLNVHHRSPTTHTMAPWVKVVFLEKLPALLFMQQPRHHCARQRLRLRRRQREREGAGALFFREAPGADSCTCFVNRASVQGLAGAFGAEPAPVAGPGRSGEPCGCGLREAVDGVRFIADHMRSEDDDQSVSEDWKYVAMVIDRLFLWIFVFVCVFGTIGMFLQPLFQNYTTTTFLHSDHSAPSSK
α6/3β2β3 nAChR, sequence (Q05901 25-458 partner limits assumed): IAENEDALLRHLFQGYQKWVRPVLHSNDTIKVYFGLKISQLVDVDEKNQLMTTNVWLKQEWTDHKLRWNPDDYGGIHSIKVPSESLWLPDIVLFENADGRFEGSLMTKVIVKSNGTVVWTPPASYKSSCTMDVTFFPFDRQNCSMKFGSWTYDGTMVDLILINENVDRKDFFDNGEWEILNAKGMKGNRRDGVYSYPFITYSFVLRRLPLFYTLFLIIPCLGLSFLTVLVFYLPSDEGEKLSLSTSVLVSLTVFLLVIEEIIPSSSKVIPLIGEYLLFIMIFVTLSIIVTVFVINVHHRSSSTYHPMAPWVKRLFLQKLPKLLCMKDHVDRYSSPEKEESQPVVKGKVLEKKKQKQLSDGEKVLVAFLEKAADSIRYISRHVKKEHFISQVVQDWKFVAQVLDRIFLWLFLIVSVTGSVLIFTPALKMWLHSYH
α4β2 nAChR, sequence (P43681 29-627 limits assumed): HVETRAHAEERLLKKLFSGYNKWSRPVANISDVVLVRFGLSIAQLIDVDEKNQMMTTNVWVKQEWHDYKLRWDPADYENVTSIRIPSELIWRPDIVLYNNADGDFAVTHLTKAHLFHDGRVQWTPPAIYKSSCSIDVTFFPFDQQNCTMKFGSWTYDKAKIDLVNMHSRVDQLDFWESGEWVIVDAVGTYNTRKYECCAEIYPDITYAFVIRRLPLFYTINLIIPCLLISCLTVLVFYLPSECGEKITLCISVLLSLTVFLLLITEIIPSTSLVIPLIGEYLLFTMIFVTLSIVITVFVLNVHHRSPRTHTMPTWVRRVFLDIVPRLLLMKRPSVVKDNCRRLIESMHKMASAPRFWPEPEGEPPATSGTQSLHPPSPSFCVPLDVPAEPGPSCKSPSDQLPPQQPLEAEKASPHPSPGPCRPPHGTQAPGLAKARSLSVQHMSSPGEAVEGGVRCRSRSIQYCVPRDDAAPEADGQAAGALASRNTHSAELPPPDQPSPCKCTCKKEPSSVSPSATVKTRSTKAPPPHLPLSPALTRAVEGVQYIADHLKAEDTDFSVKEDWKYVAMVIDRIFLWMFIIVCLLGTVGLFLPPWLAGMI
α4β2 nAChR, sequence (P17787 26-502): as the sequence (P17787 26-502) above

| SMILES | dopamine release ([1]; at higher concentrations) | EC50 (α4β2 nAChR; mean ± S.D.) [nM] | EC50 (α6/3β2β3 nAChR; mean ± S.D., read-out: α6/3β2β3 EC50) [nM] | SmartCube drug classification / behavioral features (C57Bl/6 mice; all doses tested) | EC50 [1] [nM] | % of the full receptor activity, α4β2 nAChR (α4β2 nAChR; preliminary, data not shown) [%] | EC50 (α6/3β2β3 nAChR) [nM] | partial activation of α6-containing nAChRs, % of nicotine (α6/3β2β3 nAChR; preliminary data) | % of the full receptor activity, α6/3β2β3 nAChR (α6/3β2β3 nAChR; preliminary, data not shown) [%] | agonist type at α4β2 nAChR (α4β2 nAChR) | agonist type at α6/3β2β3 nAChR (α6/3β2β3 nAChR) | SmartCube drug classification / behavioral features (C57Bl/6 mice; highest dose 0.5 mg/kg body weight) |
| --- | --- | --- | --- | --- | --- | --- | --- | --- | --- | --- | --- | --- |
| CN1C(=O)CC[C@H]1c1cccnc1 [Cotinine, (-)-cotinine] | 20–30% | > 100000 | > 100000 | no detectable effect |  |  |  |  |  |  |  |  |
| C1=CCC(c2cccnc2)NC1 (racemic) [Anatabine, (±)-Anatabine] |  |  |  | no detectable effect | 1760 | ~60 | 3600 ± 300 | approximately 67% | ~70 |  |  |  |
| CN1CCC[C@H]1c1cccnc1 [Nicotine, (-)-Nicotine] |  |  |  |  | 190 |  |  |  |  | potent full agonist | potent full agonist | anxiolytic-like behavior features |
